This note sets out measurements from PubChem BioAssay AID2060505 (Molecular Pharmacology Branch, DTP, NCI, 2025).

Each structure is given as a SMILES string. Several values for one entry are separate records, joined by “and”; a condition that tells them apart may be missing. Identical values can stand only once.

The assay concerns 633275-114-R-J1-PDC complex spheroids, viability. Nature of the assay: Anticancer human tumor 633275-114-R-J1-PDC patient-derived endometrial adenocarcinoma cell line growth inhibition [GQUAD]. To be noted: for viability, T/C: stronger effect = lower value. The text has this: DNA G-quadruplex Stabilizer Agents in Combinations in Complex Spheroids
A high-throughput screen of multi-cell type tumor spheroids was designed to identify active combinations of DNA G-quadruplex stabilizer agents and targeted small molecules. Complex spheroids include a stromal component modeled by human endothelial cells (HUVEC) and fibroblasts modeled by human mesenchymal stem cells (MSCs). The concentration ranges selected for each drug and investigational agent were based upon clinically achievable concentrations if the clinical Cmax of the agent was known.
Compounds. The drugs and investigational agents: pidnarulex (CX-5461; NSC782164), APTO-253 (NSC789042), BRACO-19 (NSC847499), peposertib (NSC802822), ceralasertib (NSC780249), elimusertib (NSC800525), camonsertib (NSC841442), AZD-1390 (NSC803789), olaparib (NSC753686), talazoparib (NSC767125), ART-558 (NSC835418), sotorasib (NSC818433), MRTX-1133 (NSC836407), SN-38 (NSC673596), topotecan (NSC609699), etoposide (NSC141540), doxorubicin (NSC123127), gemcitabine (NSC613327), 5-fluorouracil (NSC19893), paclitaxel (NSC125973), vemurafenib (NSC761431), panobinostat (NSC761190), R-306465 (JNJ-16241199; NSC773264), adavosertib (NSC754352), TP-3654 (NSC805149), carboplatin (NSC241240), KSQ-4279 (NSC840948), and staurosporine (NSC755774) were obtained from the National Cancer Institute (NCI) Developmental Therapeutics Program Chemical Repository (34). The FDA-approved anticancer drug set is available from the NCI Developmental Therapeutics Program. […] The stock solutions were prepared in dimethyl sulfoxide (DMSO, Sigma-Aldrich, St. Louis, MO, cat. D2650) at 800-fold the tested concentration and stored at -70 degrees C prior to their use. All drugs and investigational agents were tested over a range starting from a high concentration at or near the clinical Cmax and decreasing in half-log increments. If the clinical Cmax for an agent had not been determined, the highest concentration tested was 10 microM.
2.3 Cell Culture. All cells were maintained in an incubator at 37 degrees C and 5% CO2 with 95% humidity. The PDC lines were cultured according to standard operating procedures established by the NCI PDMR. All PDCs were thawed and cultured in Matrigel-coated flasks prepared with a working solution of 1X Ham's F-12 nutrient mix, without supplementation (Invitrogen, cat. 11765054), 100 U/mL penicillin-streptomycin (Invitrogen, cat. 15140122), and 2.5% Matrigel (Corning Inc., cat. 354248) for the first three passages. The 857933-349-R-J2-PDC line was cultured in 6C/Colon 1B media, which includes advanced DMEM/F-12 (Thermo Fisher Scientific, cat. 12634028), 10 mM HEPES (Thermo Fisher Scientific, cat. 15630080), 1X GlutaMAX supplement (Thermo Fisher Scientific, cat. 35050061), 0.1 mg/mL primocin (InvivoGen, cat. ant-pm-2), 10% defined fetal bovine serum, heat inactivated (HyClone Laboratories Inc., cat. SH30070.03HI), 50% L-WRN conditioned media (ATCC, cat. CRL-3276), 1.25 mM N-Acetyl-L-cysteine (Sigma-Aldrich, cat. A9165), 10 mM nicotinamide (Sigma-Aldrich, cat. N0636), 1X B-27 supplement (Thermo Fisher Scientific, cat. 17504044), 1X N-2 supplement (Thermo Fisher Scientific, cat. 17502048), 10 microM Y-27632 dihydrochloride (Tocris Bioscience, cat. 1254), and 50 ng/mL human EGF recombinant protein (Thermo Fisher Scientific, cat. PHG0311). The 485176-168-R4-J1-PDC line was cultured in Panc media, which includes all 6C/Colon 1B media components plus 100 ng/mL human FGF-10 (Thermo Fisher Scientific, cat. 100-26), 500 nM SB-431542 (Selleckchem, cat. S1067), and gastrin (Tocris, cat. 3006).
[…]
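Further: spheroids exposed to the agents for seven days.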
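Wherever viability, T/C is given: percent of DMSO vehicle control viability which is 100%.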

What is called IC50 is the concentration that gives 50% inhibition. A word on the viability, T/C: it is the result in the treated group divided by that in the control group, in per cent. On to `COc1cc(C2c3cc4c(cc3C(OC3OC5COC(C)OC5C(O)C3O)C3COC(=O)C23)OCO4)cc(OC)c1O` (stereo not drawn) + CN(C)c1ccc(Nc2c3ccc(NC(=O)CCN4CCCC4)cc3nc3cc(NC(=O)CCN4CCCC4)ccc23)cc1, for which the half-maximal inhibitory concentration (IC50) is, setting by setting: (curve of first compound, second compound 0.0316 µM) 295 nM; (curve of first compound, second compound 0.1 µM) 284 nM; (curve of first compound, second compound 0.316 µM) 296 nM; (curve of first compound, second compound 1 µM) 334 nM; (curve of first compound, second compound 3.16 µM) 171 nM; (curve of first compound, second compound 10 µM) below 31.6 nM. The viability, T/C was 81.6% (second compound 0.0316 µM, first compound 0.0316 µM); 64.5% (second compound 0.0316 µM, first compound 0.1 µM); 47.3% (second compound 0.0316 µM, first compound 0.316 µM); 40.9% (second compound 0.0316 µM, first compound 1 µM); 33.7% (second compound 0.0316 µM, first compound 3.16 µM); 30.3% (second compound 0.0316 µM, first compound 10 µM). In addition, the viability, T/C was 80.2% (second compound 0.1 µM, first compound 0.0316 µM); 64.8% (second compound 0.1 µM, first compound 0.1 µM); 44.7% (second compound 0.1 µM, first compound 0.316 µM); 41.4% (second compound 0.1 µM, first compound 1 µM); 32.6% (second compound 0.1 µM, first compound 3.16 µM); 26.9% (second compound 0.1 µM, first compound 10 µM). In addition, the viability, T/C is 84.3% (second compound 0.316 µM, first compound 0.0316 µM); 69.7% (second compound 0.316 µM, first compound 0.1 µM); 48.4% (second compound 0.316 µM, first compound 0.316 µM); 36.8% (second compound 0.316 µM, first compound 1 µM); 38.4% (second compound 0.316 µM, first compound 3.16 µM); 29.8% (second compound 0.316 µM, first compound 10 µM). Besides, the viability, T/C is 75.4% (second compound 1 µM, first compound 0.0316 µM); 59.5% (second compound 1 µM, first compound 0.1 µM); 52.1% (second compound 1 µM, first compound 0.316 µM); 38.7% (second compound 1 µM, first compound 1 µM); 36.7% (second compound 1 µM, first compound 3.16 µM); 26.7% (second compound 1 µM, first compound 10 µM). Further, the viability, T/C (second compound 3.16 µM, first compound 0.0316 µM) is 71.7%; the viability, T/C (second compound 3.16 µM, first compound 0.1 µM) is 53.7%; the viability, T/C (second compound 3.16 µM, first compound 0.316 µM) is 43.6%; the viability, T/C (second compound 3.16 µM, first compound 1 µM) is 36.4%; the viability, T/C (second compound 3.16 µM, first compound 3.16 µM) was 37.5%; the viability, T/C (second compound 3.16 µM, first compound 10 µM) is 26%. Further, the viability, T/C (second compound 10 µM, first compound 0.0316 µM) was 25.5%; the viability, T/C (second compound 10 µM, first compound 0.1 µM) was 19.9%; the viability, T/C (second compound 10 µM, first compound 0.316 µM) was 18.5%; the viability, T/C (second compound 10 µM, first compound 1 µM) was 17.5%; the viability, T/C (second compound 10 µM, first compound 3.16 µM) was 16.3%; the viability, T/C (second compound 10 µM, first compound 10 µM) was 10.7%.
Turning to `CCc1c2c(nc3ccc(O)cc13)-c1cc3c(c(=O)n1C2)COC(=O)[C@]3(O)CC`, the viability, T/C by setting is: (compound 0.000999 µM) 72.9% and 83.1% and 65.5%; (compound 0.00316 µM) 47.6% and 49.1% and 47%; (compound 0.00999 µM) 36.6% and 36.4% and 38.1%; (compound 0.0316 µM) 32.8% and 34.7% and 35.9%; (compound 0.0999 µM) 30% and 24.7% and 28.8%; (compound 0.316 µM) 23.7% (2×) and 24.4%. Where the note is “curve of compound”, the IC50 was 2.99 nM and 3.5 nM and 2.94 nM.
For `CC1COCCN1c1cc(C2(O)CC3CCC(C2)O3)c2cnn(-c3ccn[nH]3)c2n1` (stereo not drawn), the viability, T/C (compound 0.0316 µM) is 70% and 78% and 77.7%; the viability, T/C (compound 0.1 µM) was 54.3% and 51.8% and 50.7%; the viability, T/C (compound 0.316 µM) was 29% and 32.2% and 29.2%; the viability, T/C (compound 1 µM) is 19.2% and 21% and 21.1%; the viability, T/C (compound 3.16 µM) is 13.5% (2×) and 15.8%; the viability, T/C (compound 10 µM) is 8.78% and 10.1% and 9.68%. Besides, the IC50 (curve of compound) was 117 nM and 109 nM and 99.8 nM.
Take `COc1cccc2c1C(=O)c1c(O)c3c(c(O)c1C2=O)CC(O)(C(=O)CO)CC3OC1CC(N)C(O)C(C)O1` (stereo not drawn): the viability, T/C runs as follows: (compound 0.0316 µM) 62% and 55.6% and 60.7%; (compound 0.1 µM) 45.2% and 39% and 44.2%; (compound 0.316 µM) 35.7% and 31.5% and 33%; (compound 1 µM) 21.9% and 16.8% and 22.1%; (compound 3.16 µM) 1.91% and 1.16% and 1.41%; (compound 10 µM) 2% and 1.77% and 1.5%. Besides, the 50% inhibitory concentration (IC50) (curve of compound) is 87.6 nM and 48.1 nM and 74.7 nM.
As to `CC(C)n1c(=O)n(C)c2cnc3cc(F)c(-c4ccc(OCCCN5CCCCC5)nc4)cc3c21`, the viability, T/C by setting is: (compound 0.0316 µM) 111% and 107% and 105%; (compound 0.1 µM) 102% and 105% and 94.4%; (compound 0.316 µM) 112% and 103% and 93.6%; (compound 1 µM) 95.5% and 97.2% and 101%; (compound 3.16 µM) 96.8% and 95.2% and 92.5%; (compound 10 µM) 69.9% and 73.6% and 72.5%. Further, for the setting “curve of compound”, the IC50 is above 10000 nM.
Consider `CCCS(=O)(=O)Nc1ccc(F)c(C(=O)c2c[nH]c3ncc(-c4ccc(Cl)cc4)cc23)c1F`, for which the viability, T/C by setting is: (compound 0.0316 µM) 101% and 96% and 115%; (compound 0.1 µM) 91.7% and 116% and 104%; (compound 0.316 µM) 101% and 107% and 113%; (compound 1 µM) 105% and 106% and 99.1%; (compound 3.16 µM) 101% and 87.6% and 96.9%; (compound 10 µM) 42.9% and 43.6% and 32.6%. The IC50 (curve of compound) is 8670 nM and 8460 nM and 7300 nM.
Take `C=CC(=O)N1CCN(c2nc(=O)n(-c3c(C)ccnc3C(C)C)c3nc(-c4c(O)cccc4F)c(F)cc23)C(C)C1` (stereo not drawn): the viability, T/C reads like this: (compound 0.0316 µM) 98.6% and 102% and 105%; (compound 0.1 µM) 101% and 93.9% and 95.3%; (compound 0.316 µM) 109% and 115% and 99.2%; (compound 1 µM) 105% and 90.3% and 92%; (compound 3.16 µM) 111% and 93.5% and 105%; (compound 10 µM) 85% and 77% and 90.2%. For the setting “curve of compound”, the IC50 was above 10000 nM.
For the compound `Cc1[nH]c2ccccc2c1CCNCc1ccc(/C=C/C(=O)NO)cc1`, the viability, T/C (compound 0.000999 µM) was 101% and 103% and 102%; the viability, T/C (compound 0.00316 µM) was 85.1% and 98.6% and 81.7%; the viability, T/C (compound 0.00999 µM) was 77.8% and 64.2% and 81.9%; the viability, T/C (compound 0.0316 µM) is 61.1% and 69.2% and 57.3%; the viability, T/C (compound 0.0999 µM) is 43% and 39.6% and 43.9%; the viability, T/C (compound 0.316 µM) was 18.1% and 22.3% and 22.9%. For the same compound, the IC50 (curve of compound) was 61.3 nM and 59.6 nM and 61.1 nM.
`C=CCn1c(=O)c2cnc(Nc3ccc(N4CCN(C)CC4)cc3)nc2n1-c1cccc(C(C)(C)O)n1`: the viability, T/C (compound 0.0316 µM) is 103% (2×) and 101%; the viability, T/C (compound 0.1 µM) was 85.9% and 89.3% and 91.3%; the viability, T/C (compound 0.316 µM) is 73.9% and 70.5% and 70.1%; the viability, T/C (compound 1 µM) was 35.7% and 39.9% and 32.9%; the viability, T/C (compound 3.16 µM) is 20.4% and 22.2% and 19.9%; the viability, T/C (compound 10 µM) was 14.6% and 16.2% and 13.9%. Also, the IC50 (curve of compound) is 649 nM and 682 nM and 590 nM.
